# Measured values from article PMC10584882 (Communications Biology, 2023).
# Values joined by “and” are separate entries in the source; they are usually repeats but may differ in a detail not shown here. Identical values can stand only once.
# Legend:
# LC-HK2 cells [1] = assay: Cell viability assay (CellTiter-Glo), LC-HK2; format: cell-based, human; details: for Cell viability (% control): LC-HK2, 72 h, replicates
# Procedure: (§1) VERO-CCL81 was seeded in 96-well plates at a density of 1.5×10^4 cells/well, while LC-HK2 was seeded at a density of 3×10^4 cells/well, following 24 h incubation at 37 °C and 5% CO2 atmosphere. The cell culture media was replaced by serial dilutions of the compounds and the cell viability was determined 72 h post-treatment via CellTiter-Glo® Luminescent Cell Viability Assay (Promega), following the manufacturer’s instructions. Luminescent signal was recorded using a CLARIOstar multi-mode microplate reader (BMG Labtech, Germany). Graphs were generated using GraphPad Prism software version 8.0 (La Jolla, CA, USA, www.graphpad.com). Samples deemed to be technical failures and extreme outlier were removed.
# SARS-CoV-2 M^pro = molecular target: T1, SARS-CoV-2 M^pro (Severe acute respiratory syndrome coronavirus 2, UniProt P0DTD1); format: biochemical
# T1 construct: Initially reported to target the viral main protease (M^pro); made in house
# Procedure: In the enzyme inhibition assays, the initial velocities were calculated from the initial linear portions of their curves, assuming steady-state kinetics. IC50 and Ki values were calculated using GraphPad Prism software. Z-FR-AMC (CatK and CatV), Z-RR-AMC (CatB and CatL), and QS1 or Acetyl-VKLQ-AMC (M^pro) substrates were used to monitor reactions. These measurements were done in four independent duplicates or triplicates, respectively.
# human CatK = molecular target: T2, human CatK (Homo sapiens, UniProt P43235); assay: Cathepsin inhibition test, CatK; format: biochemical
# T2 construct: made in house
# T2 sequence (P43235 115-329): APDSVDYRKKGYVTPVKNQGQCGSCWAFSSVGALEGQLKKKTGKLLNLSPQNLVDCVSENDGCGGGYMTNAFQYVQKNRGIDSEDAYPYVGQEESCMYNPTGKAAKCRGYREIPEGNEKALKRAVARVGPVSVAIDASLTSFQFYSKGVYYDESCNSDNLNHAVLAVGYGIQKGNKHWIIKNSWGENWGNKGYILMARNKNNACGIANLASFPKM
# SARS-CoV-2-GFP = assay: microbe, parasite or virus in culture; format: cell-based; details: Severe acute respiratory syndrome coronavirus 2, Vero C1008, mean with standard error, read-out: VERO E6 EC50
# VERO-CCL81 cells = assay: Cell viability assay (CellTiter-Glo), VERO-CCL81; format: cell-based; details: for Cell viability (% control): VERO CCL81, 72 h, replicates of experiments 1 and 2
# Procedure: as §1
# LC-HK2 cells [2] = assay: Fluorescence microscopy, S-protein vesicle size in infected LC-HK2 cells; format: cell-based, human; details: 1.5 µM, versus control
# Procedure: LC-HK2 was cultivated on coverslips (13 mm diameter) to approximately 80% confluence. The cells were pre-treated for 2 h with 1.5 µM of S-Calpeptin diluted in DMEM supplemented with 2.5% FBS. The compounds were removed, and SARS-CoV-2 strain diluted in DMEM supplemented with 2.5% FBS was added to LC-HK2 cells at M.O.I of 0.05, allowing absorption for 1 h. The viral inoculum was removed, and cells were gently washed with PBS without calcium and magnesium. The cells were incubated in the continued presence of 1.5 µM of S-Calpeptin diluted in DMEM supplemented with 2.5% FBS and were examined by fluorescence microscopy at the time points 32, 40, 48, 56, 64 and 72 h post-infection.
# For this purpose, the cells were fixed and permeabilized with 3.7% formaldehyde solution (Sigma-Aldrich, F1635) containing 0.2% Triton X-100 in PBS 1×. […] The images were captured using fluorescence range intensity adjusted identically within each experimental series.
# Vesicles size quantifications were obtained from 2D maximum projections of Z stacks exported as grayscale TIFs (16-bit depth) using Automated Image Analysis in Zen 2.6 blue software (ZEISS). […]
# In the Fluorescence microscopy evaluation, the P-values were generated by unpaired t-test using GraphPad Prism version 8.00 (La Jolla, CA, USA, www.graphpad.com). […]
smiles,measurement,setting,value
"CCCC[C@@H](C=O)NC(=O)[C@H](CC(C)C)NC(=O)OCc1ccccc1 [Calpeptin, reference compound]",cytotoxicity (in words),"LC-HK2 cells [1]; LC-HK2, 72 h",no cytotoxicity up to low micromolar concentrations
same,Cell viability (% control),LC-HK2 cells [1]; 0.0006 μM,102.39 % control and 97.09 % control and 90.2 % control
same,Cell viability (% control),LC-HK2 cells [1]; 0.0012 μM,105.44 % control and 96.04 % control and 89.58 % control
same,Cell viability (% control),LC-HK2 cells [1]; 0.0024 μM,109.38 % control and 90.68 % control and 83.12 % control
same,Cell viability (% control),LC-HK2 cells [1]; 0.0049 μM,106.45 % control and 86.68 % control and 80.82 % control
same,Cell viability (% control),LC-HK2 cells [1]; 0.0098 μM,103.61 % control and 82.95 % control and 76.92 % control
same,Cell viability (% control),LC-HK2 cells [1]; 0.0195 μM,100.9 % control and 86.53 % control and 77.59 % control
same,Cell viability (% control),LC-HK2 cells [1]; 0.0391 μM,106.77 % control and 84.3 % control and 75.79 % control
same,Cell viability (% control),LC-HK2 cells [1]; 0.0781 μM,97.38 % control and 80.51 % control and 79.02 % control and 97.54 % control and 99.61 % control
same,Cell viability (% control),LC-HK2 cells [1]; 0.1563 μM,92.74 % control and 97.96 % control and 106.67 % control and 94.71 % control and 97.7 % control and 98.23 % control
same,Cell viability (% control),LC-HK2 cells [1]; 0.3125 μM,85.53 % control and 96.17 % control and 104.18 % control and 94.18 % control and 98.15 % control and 95.62 % control
same,Cell viability (% control),LC-HK2 cells [1]; 0.625 μM,92.03 % control and 97.64 % control and 102.17 % control and 95.74 % control and 98.42 % control and 100.55 % control
same,Cell viability (% control),LC-HK2 cells [1]; 1.25 μM,89.04 % control and 94.62 % control and 99.72 % control and 93.66 % control and 97.57 % control and 100.65 % control
same,Cell viability (% control),LC-HK2 cells [1]; 2.5 μM,87.58 % control and 93.98 % control and 97.34 % control and 91.87 % control and 96.78 % control and 96.3 % control
same,Cell viability (% control),LC-HK2 cells [1]; 5 μM,84.13 % control and 88.53 % control and 93.5 % control and 84.79 % control and 90.37 % control and 89.81 % control
same,Cell viability (% control),LC-HK2 cells [1]; 10 μM,82.98 % control and 84.95 % control and 87.98 % control and 79.13 % control and 81.86 % control and 83.76 % control
same,Cell viability (% control),LC-HK2 cells [1]; 100 μM,28.28 % control and 43.21 % control and 44.92 % control
same,range of M^pro inhibition (in words),SARS-CoV-2 M^pro,micromolar range
same,Residual activity (Vi/V0),"human CatK; Fig. S3 panel a, inhibitor 0.010 nM, single replicates, 10 pM",0.8228 and 0.7849 and 0.8924
same,remaining activity at 10 pM,"human CatK; Fig. S3 panel a, inhibitor 0.010 nM, single replicates, read-out: Residual activity (Vi/V0)",79.2%
same,Residual activity (Vi/V0),"human CatK; Fig. S3 panel a, inhibitor 0.018 nM, single replicates, 18 pM",0.692 and 0.7935 and 0.8793 and 0.9792
same,Residual activity (Vi/V0),"human CatK; Fig. S3 panel a, inhibitor 0.032 nM, single replicates, 32 pM",0.6266 and 0.7672 and 0.8012 and 0.8701
same,Residual activity (Vi/V0),"human CatK; Fig. S3 panel a, inhibitor 0.058 nM, single replicates, 58 pM",0.6214 and 0.5994 and 0.7911 and 0.9302
same,Residual activity (Vi/V0),"human CatK; Fig. S3 panel a, inhibitor 0.105 nM, single replicates, 0.000105 µM",0.4801 and 0.5677 and 0.7764
same,Residual activity (Vi/V0),"human CatK; Fig. S3 panel a, inhibitor 0.189 nM, single replicates, 0.000189 µM",0.4602 and 0.558 and 0.5219 and 0.7569
same,Residual activity (Vi/V0),"human CatK; Fig. S3 panel a, inhibitor 0.340 nM, single replicates, 0.00034 µM",0.3878 and 0.4931 and 0.523
same,remaining activity at 0.00034 µM,"human CatK; Fig. S3 panel a, inhibitor 0.340 nM, single replicates, read-out: Residual activity (Vi/V0)",34.5%
same,Residual activity (Vi/V0),"human CatK; Fig. S3 panel a, inhibitor 0.612 nM, single replicates, 0.000612 µM",0.4226 and 0.3636 and 0.4242
same,remaining activity at 0.000612 µM,"human CatK; Fig. S3 panel a, inhibitor 0.612 nM, single replicates, read-out: Residual activity (Vi/V0)",40.6%
same,Residual activity (Vi/V0),"human CatK; Fig. S3 panel a, inhibitor 1.103 nM, single replicates, 0.001103 µM",0.2715 and 0.287 and 0.3208
same,remaining activity at 0.001103 µM,"human CatK; Fig. S3 panel a, inhibitor 1.103 nM, single replicates, read-out: Residual activity (Vi/V0)",28.1%
same,Residual activity (Vi/V0),"human CatK; Fig. S3 panel a, inhibitor 1.985 nM, single replicates, 0.001985 µM",0.3296 and 0.262 and 0.2126
same,remaining activity at 0.001985 µM,"human CatK; Fig. S3 panel a, inhibitor 1.985 nM, single replicates, read-out: Residual activity (Vi/V0)",22.7%
same,Residual activity (Vi/V0),"human CatK; Fig. S3 panel a, inhibitor 3.572 nM, single replicates, 0.003572 µM",0.1196 and 0.134 and 0.13
same,remaining activity at 0.003572 µM,"human CatK; Fig. S3 panel a, inhibitor 3.572 nM, single replicates, read-out: Residual activity (Vi/V0)",12.2%
same,Residual activity (Vi/V0),"human CatK; Fig. S3 panel a, inhibitor 6.430 nM, single replicates, 0.00643 µM",0.07914 and 0.03985 and 0.09073 and 0.08937
same,Residual activity (Vi/V0),"human CatK; Fig. S3 panel a, inhibitor 11.547 nM, single replicates, 0.011547 µM",0.02749 and 0.03914 and 0.04269
same,remaining activity at 0.011547 µM,"human CatK; Fig. S3 panel a, inhibitor 11.547 nM, single replicates, read-out: Residual activity (Vi/V0)",3.75%
same,Residual activity (Vi/V0),"human CatK; Fig. S3 panel a, inhibitor 20.833 nM, single replicates, 0.020833 µM",0.006913 and 0.01907 and 0.01563
same,Residual activity (Vi/V0),"human CatK; Fig. S3 panel a, inhibitor 37.500 nM, single replicates, 0.0375 µM",-0.03871 and -0.04863 and 0.01233 and 0.01242
same,Ki,"human CatK; mean with standard deviation and 95% confidence interval, pH 5.5, 37 °C",0.061 nM
same,EC50,SARS-CoV-2-GFP,183 ± 65 nM
same,Cell viability (% control),VERO-CCL81 cells; 0.0781 μM,94.74 % control and 101.25 % control and 101.91 % control
same,Cell viability (% control),VERO-CCL81 cells; 0.1563 μM,97.56 % control and 99.32 % control and 100.01 % control
same,Cell viability (% control),VERO-CCL81 cells; 0.3125 μM,82.19 % control and 89.43 % control and 92.71 % control and 95.68 % control and 100.03 % control and 106.22 % control
same,Cell viability (% control),VERO-CCL81 cells; 0.625 μM,82.29 % control and 95.76 % control and 97.52 % control and 95.98 % control and 103.97 % control and 109.96 % control
same,Cell viability (% control),VERO-CCL81 cells; 1.25 μM,89.05 % control and 94.79 % control and 98.25 % control and 97.91 % control and 104.77 % control and 107.22 % control
same,Cell viability (% control),VERO-CCL81 cells; 2.5 μM,86.26 % control and 94.8 % control and 103.32 % control and 94.24 % control and 103.27 % control and 108.67 % control
same,Cell viability (% control),VERO-CCL81 cells; 5 μM,90.56 % control and 101.72 % control and 106.83 % control and 95.97 % control and 102.4 % control and 105.71 % control
same,Cell viability (% control),VERO-CCL81 cells; 10 μM,85.37 % control and 97.81 % control and 103.34 % control and 84.83 % control and 98.42 % control and 92.92 % control
same,cytotoxicity (in words),"VERO-CCL81 cells; VERO-CCL81, 72 h",no cytotoxicity up to low micromolar concentrations
same,impact on vesicle morphology / S-protein vesicle size,LC-HK2 cells [2],no substantial impact on vesicle morphology
